This note sets out measurements from patent publication US20070123546A1, “2-amino-7,8-dihydro-6H-pyrido[4,3-d]pyrimidin-5-ones” (Chiron Corporation, priority 2005, published 2007).

One assay addresses His-tagged N-terminal ATP binding domain (amino acid residues 9-236) of HSP90α (Homo sapiens, UniProt P07900). The experiment in a line: HSP90 inhibitor binding potency: TRF competition binding assay. Particulars: Table 1; competition with biotinylated radicicol. An outline of the steps:
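His-tagged HSP90α N-domain (residues 9-236) incubated 2 h at room temperature with biotinylated radicicol and increasing compound in 50 mM HEPES, 6 mM MgCl2, 20 mM KCl, 0.1% BSA. Bound tracer captured on streptavidin plates, detected with europium anti-His antibody by time-resolved fluorescence; IC50 derived.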
Regarding `COc1cncc(-c2cc(F)ccc2[C@H]2Cc3nc(N)nc(C)c3C(=O)N2)n1` [Compound 11, (R)-2-Amino-7-[4-fluoro-2-(6-methoxy-pyrazin-2-yl)-phenyl]-4-methyl-7,8-dihydro-6H-pyrido[4,3-d]pyrimidin-5-one], the IC50 (in general, the concentration that inhibits the measured activity by half) is < 10 µM. On to `COc1cccc(-c2cc(F)ccc2C2Cc3nc(N)nc(C)c3C(=O)N2C)n1` (stereo not shown) [Compound 7, 2-Amino-7-[4-fluoro-2-(6-methoxy-pyridin-2-yl)-phenyl]-4,6-dimethyl-7,8-dihydro-6H-pyrido[4,3-d]pyrimidin-5-one], for which the IC50 is < 10 µM. Take `COc1ccccc1-c1cc(F)ccc1C1Cc2nc(N)nc(C)c2C(=O)N1` (stereo not shown) [Compound 23, 2-Amino-7-(5-fluoro-2′-methoxy-biphenyl-2-yl)-4-methyl-7,8-dihydro-6H-pyrido[4,3-d]pyrimidin-5-one]: the IC50 was < 10 µM.

Staying with this assay, now noted: Table 3; competition with biotinylated radicicol.
`Cc1nc(N)nc2c1C(=O)N(CCCN)[C@@H](c1ccc(F)cc1Br)C2` [Compound 166, (R)-2-Amino-6-(3-amino-propyl)-7-(2-bromo-4-fluoro-phenyl)-4-methyl-7,8-dihydro-6H-pyrido[4,3-d]pyrimidin-5-one]: the IC50 is > 10 µM. Turning to `COc1ccncc1-c1cc(F)ccc1[C@H]1Cc2nc(N)nc(C)c2C(=O)N1CC(C)C` [Compound 159, (R)-2-Amino-7-[4-fluoro-2-(4-methoxy-pyridin-3-yl)-phenyl]-6-isobutyl-4-methyl-7,8-dihydro-6H-pyrido[4,3-d]pyrimidin-5-one], the IC50 is > 10 µM. Same read-out and setting: the figure for `COc1cccc(-c2cc(F)ccc2[C@H]2Cc3nc(N)nc(C)c3C(=O)N2Cc2ccccc2)c1F` [Compound 144, (R)-2-Amino-6-benzyl-7-(5,2′-difluoro-3′-methoxy-biphenyl-2-yl)-4-methyl-7,8-dihydro-6H-pyrido[4,3-d]pyriniidin-5-one] is > 10 µM; for `Cc1nc(N)nc2c1C(=O)N(CCC(C)C)[C@@H](c1ccc(F)cc1Br)C2` [Compound 148, (R)-2-Amino-7-(2-bromo-4-fluoro-phenyl)-4-methyl-6-(3-methyl-butyl)-7,8-dihydro-6H-pyrido[4,3-d]pyrimidin-5-one] it is > 10 µM.

For the compound `COc1nc(-c2cc(F)ccc2C2Cc3nc(N)nc(C)c3C(=O)N2)cnc1N` (stereo not shown) [Compound 99, 2-Amino-7-[2-(5-amino-6-methoxy-pyrazin-2-yl)-4-fluoro-phenyl]-4-methyl-7,8-dihydro-6H-pyrido[4,3-d]pyrimidin-5-one], the IC50 is < 10 µM.

In the case of `COc1ccncc1-c1cc(F)ccc1[C@H]1Cc2nc(N)nc(C)c2C(=O)N1CCC(C)C` [Compound 153, (R)-2-Amino-7-[4-fluoro-2-(4-methoxy-pyridin-3-yl)-phenyl]-4-methyl-6-(3-methyl-butyl)-7,8-dihydro-6H-pyrido[4,3-d]pyrimidin-5-one], the IC50 was < 10 µM. In the case of `COc1cccc(-c2cc(F)ccc2[C@H]2Cc3nc(N)nc(C)c3C(=O)N2Cc2cccc(Cl)c2)n1` [Compound 116, (R)-2-Amino-6-(3-chloro-benzyl)-7-[4-fluoro-2-(6-methoxy-pyridin-2-yl)-phenyl]-5-methyl-7,8-dihydro-6H-pyrido[4,3-d]pyrimidin-5-one], the concentration for half-maximal inhibition (IC50) is < 10 µM. In the case of `CCN1C(=O)c2c(C)nc(N)nc2C[C@@H]1c1ccc(F)cc1-c1cccnc1` [Compound 110, (R)-2-Amino-6-ethyl-7-(4-fluoro-2-pyridin-3-yl-phenyl)-4-methyl-7,8-dihydro-6H-pyrido[4,3-d]pyrimidin-5-one], the concentration for half-maximal inhibition (IC50) was < 10 µM.

For `Cc1nc(N)nc2c1C(=O)N(CCCNC(=O)OC(C)(C)C)[C@@H](c1ccc(F)cc1Br)C2` [Compound 165, {3-[(R)-2-Amino-7-(2-bromo-4-fluoro-phenyl)-4-methyl-5-oxo-7,8-dihydro-5H-pyrido[4,3-d]pyrimidm-6-yl]-propyl}-carbamic acid tert-butyl ester], the half-maximal inhibitory concentration (IC50) is > 10 µM.

Take `C=CCN1C(=O)c2c(C)nc(N)nc2C[C@@H]1c1ccc(F)cc1-c1cnc(N)c(OC)n1` [Compound 105, (R)-6-Allyl-2-amino-7-[2-(5-amino-6-methoxy-pyrazin-2-yl)-4-fluoro-phenyl]-4-methyl-7,8-dihydro-6H-pyndo[4,3-d]pyrimidin-5-one]: the IC50 was < 10 µM.

`Cc1nc(N)nc2c1C(=O)N(CC(C)C)[C@@H](c1ccc(F)cc1-c1cccnc1F)C2` [Compound 157, (R)-2-Amino-7-[4-fluoro-2-(2-fluoro-pyridin-3-yl)-phenyl]-6-isobutyl-4-methyl-7,8-dihydro-6H-pyrido[4,3-d]pyrimidin-5-one]: the IC50 was < 10 µM. On to `COc1ncccc1-c1cc(F)ccc1[C@H]1Cc2nc(N)nc(C)c2C(=O)N1Cc1ccccc1` [Compound 135, (R)-2-Amino-6-benzyl-7-[4-fluoro-2-(2-methoxy-pyridin-3-yl)-phenyl]-4-methyl-7,8-dihydro-6H-pyrido[4,3-d]pyrimidin-5-one], for which the half-maximal inhibitory concentration (IC50) was < 10 µM. For the compound `Cc1nc(N)nc2c1C(=O)N[C@@H](c1ccc(F)cc1)C2` [Compound 102, (R)-2-Amino-7-(4-fluoro-phenyl)-4-methyl-7,8-dihydro-6H-pyrido[4,3-d]pyrimidin-5-one], the 50% inhibitory concentration (IC50) is < 10 µM.

For `COc1cccc(-c2cc(F)ccc2[C@H]2Cc3nc(N)ncc3C(=O)N2)n1` [Compound 96, (R)-2-Amino-7-[4-fluoro-2-(6-methoxy-pyridin-2-yl)-phenyl]-7,8-dihydro-6H-pyrido[4,3-d]pyrimidin-5-one], the IC50 is < 10 µM.

In the case of `Cc1nc(N)nc2c1C(=O)N(CCCNC(=O)OC(C)(C)C)[C@@H](c1ccc(F)cc1-c1cccnc1F)C2` [Compound 169, (3-{(R)-2-Amino-7-[4-fluoro-2-(2-fluoro-pyridin-3-yl)-phenyl]-4-methyl-5-oxo-7,8-dihydro-5H-pyrido[4,3-d]pyrimidin-6-yl}-propyl)-carbamic acid tert-butyl ester], the IC50 was < 10 µM. In the case of `COc1ncccc1-c1cc(F)ccc1[C@H]1Cc2nc(N)nc(C)c2C(=O)N1CCC(C)C` [Compound 152, (R)-2-Amino-7-[4-fluoro-2-(2-methoxy-pyridin-3-yl)-phenyl]-4-methyl-6-(3-methyl-butyl)-7,8-dihydro-6H-pyrido[4,3-d]pyrimidin-5-one], the IC50 was < 10 µM. Same read-out and setting: in the case of `COc1ncc(-c2cc(F)ccc2[C@H]2Cc3nc(N)nc(C)c3C(=O)N2CC(C)C)nc1OC` [Compound 156, (R)-2-Amino-7-[2-(5,6-dimethoxy-pyrazin-2-yl)-4-fluoro-phenyl]-6-isobutyl-4-methyl-7,8-dihydro-6H-pyrido[4,3-d]pyrimidin-5-one] it was < 10 µM.

The assay is the same for the next values; noted with them: Table 4; competition with biotinylated radicicol.
For the compound `CCOc1cncc(-c2cc(F)ccc2[C@H]2Cc3nc(N)nc(C)c3C(=O)N2)n1` [Compound 216, (R)-2-Amino-7-[2-(6-ethoxy-pyrazin-2-yl)-4-fluoro-phenyl]-4-methyl-7,8-dihydro-6H-pyrido[4,3-d]pyrimidin-5-one], the IC50 is < 10 µM. On the same count and under the same terms, the figure for `COc1ncc(-c2cc(F)ccc2[C@H]2Cc3nc(N)nc(C)c3C(=O)N2)s1` [Compound 225, (R)-2-Amino-7-[4-fluoro-2-(2-methoxy-thiazol-5-yl)-phenyl]-4-methyl-7,8-dihydro-6H-pyrido[4,3-d]pyrimidin-5-one] is < 10 µM; for `CCOc1ccnc(-c2cc(F)ccc2[C@H]2Cc3nc(N)nc(C)c3C(=O)N2)n1` [Compound 193, (R)-2-Amino-7-[2-(4-ethoxy-pyrimidin-2-yl)-4-fluoro-phenyl]-4-methyl-7,8-dihydro-6H-pyrido[4,3-d]pyrimidin-5-one] it is < 10 µM; for `COc1cncc(-c2cc(F)ccc2[C@H]2Cc3nc(N)ncc3C(=O)N2)n1` [Compound 175, (R)-2-Amino-7-[4-fluoro-2-(6-methoxy-pyrazin-2-yl)-phenyl]-7,8-dihydro-6H-pyrido[4,3-d]pyrimidin-5-one] it is < 10 µM. `COc1cccc(-c2ccccc2[C@H]2Cc3nc(N)ncc3C(=O)N2)n1` [Compound 206, (R)-2-Amino-7-[2-(6-methoxy-pyridin-2-yl)-phenyl]-7,8-dihydro-6H-pyrido[4,3-d]pyrimidin-5-one]: the half-inhibitory concentration (IC50) was < 10 µM. Still for that read-out and setting: in the case of `CCOc1nc(-c2ccccc2[C@H]2Cc3nc(N)nc(C)c3C(=O)N2)cs1` [Compound 230, (R)-2-Amino-7-[2-(2-ethoxy-thiazol-4-yl)-phenyl]-4-methyl-7,8-dihydro-6H-pyrido[4,3-d]pyrimidin-5-one] it was < 10 µM; in that of `CCOc1nc(-c2ccccc2[C@H]2Cc3nc(N)nc(C)c3C(=O)N2)cnc1N` [Compound 197, (R)-2-Amino-7-[2-(5-amino-6-ethoxy-pyrazin-2-yl)-phenyl]-4-methyl-7,8-dihydro-6H-pyrido[4,3-d]pyrimidin-5-one], < 10 µM. Still for that read-out and setting: the figure for `COc1cnc(-c2cc(F)ccc2[C@H]2Cc3nc(N)nc(C)c3C(=O)N2)nc1OC` [Compound 185, (R)-2-Amino-7-[2-(4,5-dimethoxy-pyrimidin-2-yl)-4-fluoro-phenyl]-4-methyl-7,8-dihydro-6H-pyrido[4,3-d]pyrimidin-5-one] is < 10 µM; for `CCc1nc(N)nc2c1C(=O)N[C@@H](c1ccc(F)cc1-c1cncc(OC)n1)C2` [Compound 212, (R)-2-Amino-4-ethyl-7-[4-fluoro-2-(6-methoxy-pyrazin-2-yl)-phenyl]-7,8-dihydro-6H-pyrido[4,3-d]pyrimidin-5-one] it is < 10 µM; for `CCOc1nc(-c2ccccc2[C@H]2Cc3nc(N)ncc3C(=O)N2)cnc1N` [Compound 234, (R)-2-Amino-7-[2-(5-amino-6-ethoxy-pyrazin-2-yl)-phenyl]-7,8-dihydro-6H-pyrido[4,3-d]pyrimidin-5-one] it is < 10 µM. On the same count and under the same terms, in the case of `COc1nc(-c2cc(F)ccc2[C@H]2Cc3nc(N)nc(C)c3C(=O)N2)ncc1Cl` [Compound 202, (R)-2-Amino-7-[2-(5-chloro-4-methoxy-pyrimidin-2-yl)-4-fluoro-phenyl]-4-methyl-7,8-dihydro-6H-pyrido[4,3-d]pyrimidin-5-one] it was < 10 µM.
